Source: patent publication US8093050B2, “mTOR inhibtors and mTOR signaling pathway inhibitors induce differentiation of human embryonic stem cells into the osteoblastic lineage” (Korea Research Institute of Bioscience and Biotechnology, priority 2007, dated 2012)
Entries after “also recorded” stand apart in the source; their conditions may differ.

Columns and labels:
[1] = tested on: human embryonic stem cell-derived embryoid bodies; assay: RT-PCR of osteoblast-specific genes, embryoid body formation method (FIG. 6); format: cell-based; details: for expression level of osteoblastic markers / expression level of osteoblast-specific genes compared to untreated control: embryoid bodies; for expression level of osteoblastic markers: 20 nM rapamycin for three weeks; for expression level of osteoblast-specific genes compared to untreated control: LY294002 (0-50 μM), AKT inhibitor (0-20 μM), or rapamycin (0-200 nM) for 1~3 weeks; for expression levels of osteoblast-specific genes: embryoid body formation method
Method: After being collected as a suspension, the cell clumps were transferred into bacterial cell culture dishes and incubated for 5 days in a suspension culture manner. Afterwards, the embryoid bodies thus obtained were transferred to Matrigel (BD biosciences, USA)-coated culture dishes, free of human recombinant FGF basic, containing 0.1˜200 nM rapamycin, […], or osteogenic supplements (10 mM β-glycerophosphate, 0.1 mM Dexamethasone, and 0.1 mM L-ascorbic acid) for three weeks in an adhesion culture manner to achieve osteogenic differentiation (FIG. 3A).
(§1) The differentiation of human embryonic stem cells into osteoblasts in Example 3 was examined by detecting the expression of osteoblast-specific genes through RT-PCR and quantitative real-time PCR. For this, after treatment or non-treatment with rapamycin, LY294002, an AKT inhibitor or osteogenic supplements (10 mM β-glycerophosphate, 0.1 mM Dexamethasone, and 0.1 mM L-ascorbic acid), cells were collected according to differentiation stages and subjected to total RNA isolation using a TRIzol reagent (Invitrogen, USA). The RNA was used as a template to synthesize cDNA with a oligo(dT) primer in the presence of a Superscript II reverse transcriptase, followed by PCR with various primers listed in Table 1, below.
(§2) Osteogenic differentiation using the embryoid body formation method is schematically illustrated in FIG. 3A. Initially, human embryonic stem cells are cultured for one day in the same manner as in the adhesion culture method, after which the colonies thus grown are sliced into cell clumps using a tool made from a glass pipette.

[2] = tested on: PI4K, an EGR receptor, a PDGF receptor, an insulin receptor, an MAP kinase, an S6 kinase; details: cited from earlier work
[3] = tested on: human embryonic stem cells; assay: Cytotoxicity in differentiation culture; format: cell-based; details: for cytotoxicity: 10 μM of LY29400, 1 μM of an AKT inhibitor, or 220 nM of rapamycin
PI3K = details: cited from earlier work
[4] = tested on: human embryonic stem cells; assay: RT-PCR of osteoblast-specific genes, adhesion culture (FIG. 5); format: cell-based; details: for expression of osteoblast-specific genes: 10 μM of LY29400, 1 μM of an AKT inhibitor, or rapamycin; for expression level of osteoblastic markers: human embryonic stem cells, LY294002, AKT inhibitor, or 20 nM rapamycin for 5 days
Method: For osteogenic differentiation by adhesion culturing, the human embryonic stem cells obtained in Example 1, after passage, were cultured in the culture medium of Example 1 for 2 days, and then in a culture medium, free of recombinant human FGF basic, […], 0.01˜50 μM LY294002, 0.01˜20 μM AKT inhibitor, or conventional osteogenic supplements (10 mM β-glycerophosphate, 0.1 mM Dexamethasone, 0.1 mM L-ascorbic acid) for […], with daily replacement with a fresh embryonic stem cell culture medium (FIG. 2A).
as §1
First, a description is given of the adhesion culture method. […] Afterwards, the human embryonic stem cells are induced to differentiate into osteoblasts by being cultured for five days in a medium that is the same except that it is free of recombinant human FGF basic and is supplemented with LY294002, an AKT inhibitor, rapamycin, and/or conventional osteogenic supplements (10 mM 3-glycerophosphate, 0.1 mM Dexamethasone, and 0.1 mM L-ascorbic acid) (Stage II).

[5] = tested on: human embryonic stem cell-derived embryoid bodies; assay: Analysis for mineralization by Alizarin-Red S staining; format: cell-based
Method: The cells obtained using the three differentiation inducing techniques described in Example 3 were analyzed for mineralization using an Alizarin-Red S staining method. After aspirating the culture medium, the cells on the culture dish were washed with PBS and fixed at 4° C. for 1 hr with 70% ethanol. Thereafter, the cells were stained with a 40 mM alizarin red (AR) solution (pH 4.2) for 10 min, washed with distilled water, and observed for mineral nodule formation under an optical microscope before they were completely dried. […] A culture period of three weeks was required to maximize the number of Alizarin Red-positive cells upon osteogenic differentiation with rapamycin alone.

[6] = tested on: human embryonic stem cell-derived embryoid bodies; assay: Immunofluorescent staining for BSP and osteocalcin; format: cell-based
Method: The osteogenic differentiation of the cells obtained using the three differentiation inducing techniques described in Example was identified by immunofluorescent staining. First, the cells were placed on a 1 cm^2 cover glass and the medium was aspirated. Following washing with PBS, the cells were incubated with a fixing solution (citrate-acetone-formaldehyde) for about 30 sec at room temperature and washed with distilled water for 45 sec. Next, treatment with 3% bovine serum albumin/phosphate buffered saline (BSA/PBS) for 30 min was followed by incubation with a primary antibody for 12 hrs. Then, the cells were washed three times for 15 min in 0.1% Triton X-100/PBS before labeling by incubation with an Alexa488-conjugated secondary antibody (Molecular probes, USA) for 30 min at room temperature. The cells were washed again three times in 0.1% Triton X-100/PBS for 15 min each time for observation under a fluorescent microscope (Olympus, Japan). In order to identify osteogenic differentiation, anti-bone sialoprotein (anti-BSP, Chemicon; 1:100), and anti-osteocalcin (R&D Systems; 1:500) were used for immunofluorescence.

[7] = tested on: human embryonic stem cell-derived embryoid bodies; assay: Quantitative real-time PCR of osteoblast-specific genes (FIGS. 7, 8, 11); format: cell-based
Method: After being collected as a suspension, the cell clumps were transferred into bacterial cell culture dishes and incubated for 5 days in a suspension culture manner. Afterwards, the embryoid bodies thus obtained were transferred to Matrigel (BD biosciences, USA)-coated culture dishes, free of human recombinant FGF basic, containing 0.1˜200 nM rapamycin, 0.01˜50 μM LY294002, 0.01˜20 μM AKT inhibitor, or osteogenic supplements (10 mM β-glycerophosphate, 0.1 mM Dexamethasone, and 0.1 mM L-ascorbic acid) for three weeks in an adhesion culture manner to achieve osteogenic differentiation (FIG. 3A).
as §1, §2

[8] = osteoblasts differentiated from embryoid bodies, FIG. 6
[9] = embryoid bodies, one week of differentiation, FIG. 7
[10] = two weeks of differentiation culture, FIG. 7

O=c1cc(N2CCOCC2)oc2c(-c3ccccc3)cccc12 [LY294002]
expression level of osteoblastic markers [1]: increase in expression level | expression level of osteoblast-specific genes compared to untreated control [1]: increase in the expression level | expression levels of osteoblast-specific genes ([1]; FIG. 6): increase the expression levels | expression of osterix and osteoprotegerin [1, 8]: expressed at high levels | inhibition of PI4K, an EGR receptor, a PDGF receptor, an insulin receptor, an MAP kinase, an S6 kinase [2]: does not inhibit | cytotoxicity [3]: without the occurrence of cytotoxicity | inhibition of PI3K (PI3K): inhibits PI3K | expression of osteoblast-specific genes [4]: efficiently expressed | expression level of osteoblastic markers [4]: increase in expression level

CO[C@H]1C[C@@H]2CC[C@@H](C)[C@@](O)(O2)C(=O)C(=O)N2CCCC[C@H]2C(=O)O[C@H]([C@H](C)C[C@@H]2CC[C@@H](O)[C@H](OC)C2)CC(=O)[C@H](C)/C=C(\C)[C@@H](O)[C@@H](OC)C(=O)[C@H](C)C[C@H](C)/C=C/C=C/C=C/1C [rapamycin]
expression level of osteoblastic markers [1]: increase in expression level | expression level of osteoblast-specific genes compared to untreated control [1]: increase in the expression level | expression levels of osteoblast-specific genes ([1]; FIG. 6): increase the expression levels | osteogenic induction activity among the three compounds ([1]; even at low doses, FIG. 6): most potent induction activity | induction of embryoid bodies to differentiate into osteoblasts relative to LY294002 and AKT inhibitor ([1]; osteoblastic markers, FIG. 6): more effectively induce | amounts of marker genes expressed relative to LY294002 or an AKT inhibitor [1, 8]: as great as or greater than | diversity of expressed marker genes (BMP2, osteocalcin, Cbfa-2, osterix, osteoprotegerin, GATA2, CMP) [1, 8]: highest diversity | expression of osterix and osteoprotegerin [1, 8]: expressed at high levels | cytotoxic effects ([3]; 20 nM of rapamycin added to a culture medium): no cytotoxic effects | cytotoxicity [3]: without the occurrence of cytotoxicity | Alizarin-Red staining of differentiated cells ([5]; cells induced to differentiate, FIG. 10): positively stained | incubation needed to obtain a mature osteoblast phenotype ([5]; embryoid bodies incubated with rapamycin): additional three weeks | differentiation into mature osteoblasts ([5]; embryoid bodies, 20 nM rapamycin for three weeks): most efficient differentiation | Alizarin Red S staining ([5]; embryoid bodies, three weeks, 20 nM rapamycin, FIG. 10): positively stained | culture period required to maximize the number of Alizarin Red-positive cells ([5]; osteogenic differentiation with rapamycin alone): three weeks | expression of osteoblast-specific genes, dose comparison ([4]; 20 nM versus 10 nM of rapamycin): greater levels in the presence of 20 nM than 10 nM | expression levels of Osteocalcin and Osteonectin, dose comparison ([4]; 20 nM versus 10 nM rapamycin, FIG. 5): higher at a dose of 20 nM than 10 nM | expression of osteoblast-specific genes [4]: efficiently expressed | expression level of osteoblastic markers [4]: increase in expression level | expression of osterix, BMP2, and osteonectin genes ([4]; two cell lines, adhesion culture, FIG. 5): expressed in both cell lines, but in different patterns | expression of osteoblastic markers Cbfa-1, osteocalcin, and osteoprotegerin ([4]; two independently established cell lines, adhesion culture, compared to an undifferentiated control, FIG. 5): expressed; also recorded: distinctively higher levels | ability to induce osteogenic differentiation relative to conventional osteogenic supplements ([6]; FIG. 9): as good as or better than | number of cells differentiated into osteoblasts (BSP or osteocalcin antibody) relative to conventional osteogenic supplements ([6]; FIG. 9): same or greater number | immunofluorescent staining with antibodies to BSP and osteocalcin ([6]; embryoid bodies, three weeks, 20 nM rapamycin): positively stained | osteogenic differentiation activity relative to conventional osteogenic supplements (cell morphology, expression level of osteoblastic markers) ([7]; FIGS. 2, 7 and 8): as good as or better than | expression level of osterix, BMP2, BMP4, α1 type I collagen, osteocalcin, osteoprotegerin, osteonectin, and osteopontin ([7]; after three weeks of differentiation culture, FIG. 8): continued to increase in expression level | expression level of Cbfa1 ([7]; both human embryonic stem cell lines, after three weeks of differentiation culture): decreased in the expression level | expression levels of osterix, BMP4, α1 type I collagen, osteoprotegerin, and osteopontin ([7]; both human embryonic stem cell lines, three weeks of differentiation culture): similarly increased | expression of BMP2 increased [7, 9]: 1.38 fold | expression of BSP increased [7, 9]: 6.54 fold | expression of Cbfa1 increased [7, 9]: 3.24 fold | expression of osteocalcin increased [7, 9]: 1.84 fold | expression of osteopontin increased [7, 9]: 2.89 fold | expression level of osteoblastic markers ([7]; embryoid bodies, one week of incubation with rapamycin, FIG. 7): increase in expression level | expression level of BMP2 increased [7, 10]: 1.34 fold | expression level of BMP4 increased [7, 10]: 1.18 fold | expression level of BSP increased [7, 10]: 1.63 fold | expression level of Cbfa-1 increased [7, 10]: 2.11 fold | expression level of osteocalcin increased [7, 10]: 1.61 fold | expression level of osteonectin increased [7, 10]: 1.94 fold | expression level of osteopontin increased [7, 10]: 5.81 fold | expression level of osteoprotegerin increased [7, 10]: 2.18 fold | expression level of osterix increased [7, 10]: 1.59 fold | expression level of α1 type I collagen increased [7, 10]: 1.35 fold

CCCCCCCCCCCCCCCCCCOC[C@H](COC(=O)OC1C(O)C(O)C(O)C(CO)C1O)OC (stereo partly drawn) [AKT inhibitor]
expression level of osteoblastic markers [1]: increase in expression level | expression level of osteoblast-specific genes compared to untreated control [1]: increase in the expression level | expression levels of osteoblast-specific genes ([1]; FIG. 6): increase the expression levels | expression of osterix and osteoprotegerin [1, 8]: expressed at high levels | cytotoxicity [3]: without the occurrence of cytotoxicity | expression of osteoblast-specific genes [4]: efficiently expressed | expression level of osteoblastic markers [4]: increase in expression level
